Results taken from patent US9382295B2, “Cyclic depsipeptide compounds and their uses” (Cypralis Limited, priority 2012, dated 2016).
pIC50: −log10 of the molar value. Like-named read-outs stand apart in the source and are kept apart here.

Experiments:
[1] = molecular target: T1, calcineurin/cyclophilin A (Homo sapiens, UniProt P62937+P63098+Q08209); experiment: Calcineurin phosphatase (CaN) assay in the presence of Cyp A; format: biochemical; settings: inhibitor in 1:1 complex with Cyp A; read-out: CaN + CypA (IC50 in the calcineurin/cyclophilin A assay)
T1 construct: purchased Enzo Life Sciences (calcineurin, calmodulin); Sigma (CypA) BML-AK804; C3805
T1 sequence (P63098 whole entry, other chains not shown): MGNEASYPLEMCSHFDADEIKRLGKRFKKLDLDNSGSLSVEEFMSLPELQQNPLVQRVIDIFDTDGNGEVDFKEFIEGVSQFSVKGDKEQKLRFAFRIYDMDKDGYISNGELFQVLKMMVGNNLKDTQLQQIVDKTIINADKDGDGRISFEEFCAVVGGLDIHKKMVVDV
T1 sequence (P62937 whole entry, other chains not shown): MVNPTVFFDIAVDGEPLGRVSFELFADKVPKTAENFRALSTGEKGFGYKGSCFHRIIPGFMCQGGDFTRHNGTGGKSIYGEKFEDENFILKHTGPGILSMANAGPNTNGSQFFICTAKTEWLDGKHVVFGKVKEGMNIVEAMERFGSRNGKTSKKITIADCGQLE
Excerpt: **Calcineurin Phosphatase (CaN) Assay The calcineurin phosphatase assay is a means for estimating the immunosuppressive potential of a test compound. Calcineurin is a serine-threonine protein phosphatase that on activation dephosphorylates members of the nuclear factor of activated T cells (NFAT), which are important in T lymphocyte activation. […] To investigate the immunosuppressive potential of exemplary compounds of Formula 1, which are novel cycloundecadepsipeptide compounds, their ability to inhibit calcineurin activity was measured in the presence of Cyp A. The CaN assay kit used is based on a colorimetric assay for measuring calcineurin phosphatase activity, and it is commercially available (Enzo Life Sciences and Calbiochem). Calmodulin is also required for calcineurin activity and RH phosphopeptide is used as an efficient peptide substrate for calcineurin. […] The detection of free phosphate released is based on the classic Malachite green assay. Enzo Life Sciences CaN Assay Kit: BML-AK804 2× assay buffer: 100 mM Tris, pH7.5, 200 mM NaCl, 12 mM MgCl2, 1 mM DTT, 0.05% NP-40, 1 mM CaCl2 Calmodulin (Human, Recombinant): was thawed on ice, diluted 1:50 with 2× assay buffer, and then stored on ice. Calcineurin: was thawed quickly, stored on ice immediately, diluted 1:12.5 with 1× assay buffer, and then stored on ice. R-II Substrate: 915 μL ultrapure water (UPW) was added to the 1.5 mg vial substrate to give a final concentration of 0.75 mM. Inhibitors: 2.5 mM inhibitor in 100% DMSO. Cyp A: recombinant human CypA (Sigma C3805), 1 mg/ml; Recombinant 6-his tagged CypA prepared by the Univ. of Edinburgh was also used. […] Inhibitor dilutions: inhibitor compounds were diluted in UPW in polypropylene low-binding 96 well plates at 5x the final assay concentration. For samples ‘without Cyp A’, a 4-point dilution series of the inhibitor was prepared in duplicate to obtain a final assay concentration of 10, 1, 0.1 and 0.01 μM. […] Cs A inhibitor controls were also prepared to obtain a final concentration of 10 μM Cs A with and without 10 μM Cyp A. Assay Setup: using the half area 96 well plates supplied with the kit, 10 μl UPW was added to duplicate wells to provide the non-inhibited control. 10 μl of the inhibitor or the inhibitor/Cyp A complex was added to the appropriate sample wells. 25 μl of the 2× assay buffer with CaM was added to all wells, then 5 μl of CaN was added to all wells (40 U per well final concentration) except duplicate ‘no calcineurin blank’ wells to which 5 μL 1× assay buffer was added. […] The reaction was started by the addition of 10 μl RII-peptide (0.15 mM final concentration). The reaction was allowed to proceed at 30° C. for a time period in which the reaction is linear for about 60 minutes. The reaction was then terminated by adding 100 μl of the Malachite Green reagent. […] The data were analyzed by subtracting ‘no Calcineurin blank’ from all the absorbance readings and plotting the background corrected absorbances against Log10 inhibitor concentration. A sigmoidal-dose response curve was fitted to the data using GraphPad Prism Software. […] It exerts its immunosuppressive activity by binding to cyclophilin A to form a complex, which then binds to calcineurin and thereby inhibits calcineurin activity.

[2] = Rat pharmacokinetics, iv and po dosing, whole blood and plasma; format: in vivo; settings: for AUC(0-inf) / AUC(0-t) / Cmax / half-life / clearance / Vd / bioavailability / Tmax: mean; for half-life: read-out: half-life (T1/2) (converted); for clearance: read-out: systemic clearance (converted); for Vd: read-out: volume of distribution at the terminal phase; for bioavailability: po 10 mg/kg vs iv 1 mg/kg
Description: Rat pharmacokinetic data was obtained for example 2, following iv dosing at 1 mg/kg and po dosing at 10 mg/kg and individual analysis of plasma and whole blood samples at various time points was carried out.

[3] = Water solubility assay (pH 7.8 buffer); format: physicochemical; settings: pH 7.8
How it was run: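 DMSO stocks were diluted into 35 mM HEPES pH 7.8 to final 0–100 μM with 1% DMSO, in triplicate. Plates were shaken 18 h at 25 °C, then precipitation was detected as increased absorbance at 650 nm. Values give the concentration (μM) at which the compound remains in solution.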

pIC50 [1]: < 6.00
blood plasma ratio ([2]; intravenous, 1 mg/kg, from volumes of distribution in plasma and whole blood, read-out: difference in blood to plasma ratio): ~3
systemic clearance relative to hepatic blood flow in rats (3.31 L/hr/kg) ([2]; plasma, iv 1 mg/kg): 1.26 fold
volume of distribution relative to total body water (0.67 L/kg) in rats ([2]; plasma, iv 1 mg/kg): 44.69 fold
AUC(0-inf) ([2]; plasma, iv 1 mg/kg): 239 ng·h/mL
AUC(0-t) ([2]; plasma, iv 1 mg/kg): 197 ng·h/mL
Cmax ([2]; plasma, iv 1 mg/kg): 275 ng/mL
half-life ([2]; plasma, iv 1 mg/kg): 298 min
clearance ([2]; plasma, iv 1 mg/kg): 69.7 mL/min/kg
Vd ([2]; plasma, iv 1 mg/kg): 29.9 L/kg
bioavailability ([2]; plasma): 95.9%
AUC(0-inf) ([2]; plasma, po 10 mg/kg): 2290 ng·h/mL
AUC(0-t) ([2]; plasma, po 10 mg/kg): 2250 ng·h/mL
Tmax ([2]; plasma, po 10 mg/kg): 2 h
Cmax ([2]; plasma, po 10 mg/kg, read-out: Cmax): 328 ng/mL
half-life ([2]; plasma, po 10 mg/kg): 264 min
systemic clearance as share of hepatic blood flow in rats (3.31 L/hr/kg) ([2]; whole blood, iv 1 mg/kg): 35.0%
volume of distribution relative to total body water (0.67 L/kg) in rats ([2]; whole blood, iv 1 mg/kg): 15.40 fold
AUC(0-inf) ([2]; whole blood, iv 1 mg/kg): 859 ng·h/mL
AUC(0-t) ([2]; whole blood, iv 1 mg/kg): 827 ng·h/mL
Cmax ([2]; whole blood, iv 1 mg/kg): 643 ng/mL
half-life ([2]; whole blood, iv 1 mg/kg): 368 min
clearance ([2]; whole blood, iv 1 mg/kg): 19.3 mL/min/kg
Vd ([2]; whole blood, iv 1 mg/kg): 10.3 L/kg
bioavailability ([2]; whole blood): 70.1%
AUC(0-inf) ([2]; whole blood, po 10 mg/kg): 6020 ng·h/mL
AUC(0-t) ([2]; whole blood, po 10 mg/kg): 5930 ng·h/mL
Tmax ([2]; whole blood, po 10 mg/kg): 2 h
Cmax ([2]; whole blood, po 10 mg/kg, read-out: Cmax): 678 ng/mL
half-life ([2]; whole blood, po 10 mg/kg): 242 min
solubility at 18 h [3]: > 100 µM
SMILES: CC(C)CC1NC(=O)[C@H](CC(C)C)N(C)C(=O)CN(C)C(=O)C([C@@H](C)O)NC(=O)C([C@H](O)[C@H](C)CCN2CCOCC2)N(C)C(=O)C(C(C)C)N(C)C(=O)C(CC(C)C)NC(=O)C(CC(C)C)N(C)C(=O)C(C(C)C)OC(=O)C(C)NC(=O)C(CC(C)C)N(C)C1=O (stereo in doubt) [Example 2, cyclo-[(3R,4R,5S)-4-(hydroxy)-3-methyl-5-(methylamino)-1-N-morpholino-hexanoic acid-Thr-Sar-MeLeu-Leu-MeLeu-Ala-D-Hiv-MeLeu-Leu-MeVal]]
